{
  "source": "patent US11173140B2",
  "about": "“Dosing regimens of PKC activators” (COGNITIVE RESEARCH ENTERPRISES, INC., priority 2015, dated 2021)",
  "format_in_all_cases": "in vivo, mice",
  "key": {"PSD-95": {"test_system": "PSD-95", "assay": "Brain PSD-95 by Western Blot after i.v. bryostatin dosing regimens", "settings": "for PSD-95 (% of Control): mouse brain, 1 h after last dose", "protocol": "(§1) The dose of bryostatin administered is reflected by the number above each bar, while the number within each bar indicates the number of consecutive weeks mice receive a single weekly dose of bryostatin. Control mice were injected with vehicle. PSD-95 was measured in mouse brain by Western Blot 1 h after the last dose. (Mean±SEM, n=3 except Cage 23 n=2, 2-tailed t-test).\n(§2) Mouse studies were performed using bryostatin-i in accordance with the protocol described below. The following metrics were used to evaluate dosing regimens: induction of brain postsynaptic anchoring protein PSD-95, upregulation of BDNF levels in brain, minimal downregulation of PKC-ε levels, and elevation of brain and plasma concentrations of bryostatin. Groups of 2-3 mice were formed and housed in an approved research animal facility. Water was give ad libitum. A first study involved three groups of mice with animals in each group dosed weekly for 1, 2, 3, or 6 consecutive weeks. Each group had its own control group containing the same number of mice. In this study, mice in the first, second and third groups received an intravenous (i.v.) injection of 10 μg/m^2, 15 μg/m^2, and 25 μg/m^2 dose of bryostatin respectively. For each dose, mice in that group received a single injection of bryostatin weekly for predetermined number of consecutive weeks. Following dosing, mice were sacrificed and the blood and brain of each animal was collected for further analysis.\nCells were harvested in homogenizing buffer containing 10 mM Tris-Cl (pH 7.4), 1 mM PMSF (phenylmethylsulfonyl fluoride), 1 mM EGTA, 1 mM EDTA. 50 mM NaF, and 20 μM leupeptin and were lysed by sonication. The homogenate was centrifuged at 100,000×g for 15 min at 4° C. to obtain the cytosolic fraction (supernatant) and membrane (pellet). The pellet was resuspended in the homogenizing buffer by sonication. Protein concentration was measured using the Coomassie Plus (Bradford) Protein Assay kit (Pierce, USA). Following quantification, 20 μg of protein from each sample was subjected to SDS-PAGE analysis in 4-20% gradient Tris-Glycine gel (Invitrogen, USA). The separated protein was then transferred to nitrocellulose membrane. The membrane was blocked with BSA at room temperature for 15 min and was incubated with primary antibody over night at 4° C. After the incubation, it was washed three times with TBS-T (Tris Buffered saline-Tween 20) and further incubated with alkaline phosphatase conjugated secondary antibody (Jackson Immunoresearch Laboratories. USA) at 1:10,000 dilution for 45 min. The membrane was finally washed three times with TBS-T and developed using the 1-step NBT-BCIP substrate (Pierce, USA). Western Blot was imaged in the Image Quant RT-ECL (GE Life Sciences, Piscataway, N.J.) and densitometric quantification was performed using the IMAL software (Blanchette Rockefeller Neurosciences institute, Morgantown, W. Va.). For translocation assays, PKC activation was represented as the percentage of total protein in the membrane (membrane/cytosol+membrane).\n(§3) C57B/6 male mice weighing between 19-21 grams were obtained from Charles River and housed in cages, 1 mouse/cage in a vivarium at the Blanchette Rockefeller Neurosciences institute. Animals were allowed access to water ad libitum.\n(§4) In these studies, bryostatin was administered intravenously (i.v.) by injection into the tail vein of a mouse. Stock solutions of bryostatin were prepared in dimethyl sulfoxide (DMSO). Prior to administration to a mouse, the stock DMSO solution of bryostatin was diluted to a predetermined concentration by dilution with phosphate buffered saline/saline (PBS/saline).\nThree different dosing regimens (injection schedules) were compared. The dosing regimens tested were weekly dosing, dosing every other week (alternating weeks), and spaced or intermittent dosing. […]"}, "BDNF": {"test_system": "BDNF", "assay": "Brain BDNF by ELISA after i.v. bryostatin dosing regimens", "settings": "for BDNF (% of Control): mouse brain, 24 h after last dose", "protocol": "as §1, with “FIG. 2 illustrates the increase in brain BDNF content in mice at 24 hours post intravenous administration of bryostatin. The” for “The”, “BDNF content for each test group was calculated as percent of the corresponding control. BDNF” for “PSD-95”, “ELISA 24” for “Western Blot 1”, “24” for “23”\nas §2, §3, §4\nThree different dosing regimens (injection schedules) were compared. The dosing regimens tested were weekly dosing, dosing every other week (alternating weeks), and spaced or intermittent dosing.\n(§5) The brain, whole blood, and plasma of mice in each dosing group as well as control mice was collected at 1 hour, 24 hours and 7 days after the last injection of bryostatin. PBMC's were isolated from blood and the brain, blood, plasma and PBMC's were frozen immediately using dry ice. Prior to analysis PBMC's were counted by diluting the sample (10 μl aliquot), 10-fold and the PBMC's counted using a Millipore Scepter cell counter. Every group of test animals had its own control group (N=3). Mice in the control group were injected with vehicle at a frequency similar to the dosing regimen and these animals were sacrificed and tested in parallel with mice in the test group.\n(§6) Each measurement was performed four times (X4). BDNF levels were measured using ELISA and the concentration of protein PSD-95 was measured by Western Blot. High performance liquid chromatography-mass spectral analysis was used to measure the concentration of bryostatin in blood and brain samples based on a standard curve. Total protein concentrations were measured Coomassie Plus (Bradford) Protein Assay kit.\nIn this study, mice were administered 10 μg/m^2, 15 μg/m^2, and 25 μg/m^2 dose of bryostatin as a single injection once per week for the indicated number of consecutive weeks. […]"}, "[1]": {"assay": "Bryostatin levels in brain and plasma (HPLC-MS), crossing of blood-brain barrier", "settings": "for bryostatin (% of Control), BRAIN: mouse brain; for bryostatin (% of Control), PLASMA: mouse plasma", "protocol": "FIG. 5 illustrates the steady state concentration of bryostatin in the brain and plasma of mice following intravenous administration at the indicated doses.\nFurther evaluation was performed on bryostatin crossing the blood-brain-barrier (BBB) and the steady state levels of bryostatin in the brain and plasma of mice. […] The concentration of bryostatin in mice brain was less than its concentration in plasma.\nas §4, §5, §6\nThe therapeutic efficacy of bryostatin depends at least in part on its ability to cross the blood-brain-barrier (BBB). To evaluate whether dosing regimen influences the bryostatin levels in brain, mice were administered the drug intravenously. Table 9 illustrates the effect of dose and dosing regimen on bryostatin levels in the brain and plasma of mice. Sporadic dosing increased the levels of bryostatin in brain compared to plasma. See data for mice in cages 9 and 11."}, "[2]": {"settings": "cage 4: 25 μg/m^2 i.v. once weekly, 3 weeks, 24 h"}, "[3]": {"settings": "cage 6: 10 μg/m^2 i.v. once weekly, 3 weeks, 24 h"}, "[4]": {"settings": "cage 9: 25 μg/m^2 i.v., weeks 1 and 3, 24 h"}, "[5]": {"settings": "cage 11: 25 μg/m^2 i.v., weeks 1 and 2, 7 d delay"}},
  "data": [
    {"compound": "CCC/C=C/C=C/C(=O)O[C@H]1/C(=C/C(=O)OC)C[C@H]2C[C@H]([C@@H](C)O)OC(=O)C[C@H](O)C[C@@H]3C[C@H](OC(C)=O)C(C)(C)[C@](O)(C[C@@H]4C/C(=C/C(=O)OC)C[C@H](/C=C/C(C)(C)[C@]1(O)O2)O4)O3", "note": "[Bryostatin-1]", "values": [
      {"measurement": "amounts of PSD-95", "setting": "PSD-95; mice, 25 μg/m^2 i.v. once per week, three weeks", "result": "higher amounts"},
      {"measurement": "PSD-95 (% of Control)", "setting": "PSD-95; cage 7: 10 μg/m^2 i.v. once weekly, 6 weeks", "result": "108.176 % of Control"},
      {"measurement": "PSD-95 (% of Control)", "setting": "PSD-95; cage 17: 15 μg/m^2 i.v. once weekly, 3 weeks", "result": "126.969 % of Control"},
      {"measurement": "PSD-95 (% of Control)", "setting": "PSD-95; cage 21: 25 μg/m^2 i.v., 1 week", "result": "99.453 % of Control"},
      {"measurement": "PSD-95 (% of Control)", "setting": "PSD-95; cage 23: 25 μg/m^2 i.v. once weekly, 2 weeks", "result": "107.570 % of Control"},
      {"measurement": "PSD-95 (% of Control)", "setting": "PSD-95; cage 25: 25 μg/m^2 i.v. once weekly, 3 weeks", "result": "171.203 % of Control"},
      {"measurement": "brain BDNF levels", "setting": "BDNF; mice, 10 μg/m^2 i.v., 3 or 6 consecutive weeks", "result": "did not result in elevated levels of brain BDNF"},
      {"measurement": "brain BDNF levels", "setting": "BDNF; mice, 15 μg/m^2, three consecutive weeks", "result": "some increase"},
      {"measurement": "brain BDNF levels", "setting": "BDNF; mice, 25 μg/m^2", "result": "maximum increase"},
      {"measurement": "brain BDNF", "setting": "BDNF; mice, 25 μg/m^2, 3 weekly doses, 3 weeks no dosing, 3 more weekly doses", "result": "remained elevated"},
      {"measurement": "BDNF (% of Control)", "setting": "BDNF; cage 4: 25 μg/m^2 i.v. once weekly, 3 weeks", "result": "192.869 % of Control"},
      {"measurement": "BDNF (% of Control)", "setting": "BDNF; cage 5: 25 μg/m^2 i.v., 3 on/3 off/3 on (9 weeks)", "result": "149.023 % of Control"},
      {"measurement": "BDNF (% of Control)", "setting": "BDNF; cage 6: 10 μg/m^2 i.v. once weekly, 3 weeks", "result": "107.047 % of Control"},
      {"measurement": "BDNF (% of Control)", "setting": "BDNF; cage 8: 10 μg/m^2 i.v. once weekly, 6 weeks", "result": "99.137 % of Control"},
      {"measurement": "BDNF (% of Control)", "setting": "BDNF; cage 18: 15 μg/m^2 i.v. once weekly, 3 weeks", "result": "110.969 % of Control"},
      {"measurement": "BDNF (% of Control)", "setting": "BDNF; cage 22 (regimen not listed in Tables 2/3)", "result": "133.142 % of Control"},
      {"measurement": "BDNF (% of Control)", "setting": "BDNF; cage 24: 25 μg/m^2 i.v. once weekly, 2 weeks", "result": "135.095 % of Control"},
      {"measurement": "increase of bryostatin concentration in brain", "setting": "[1]; mice, 25 μg/m^2 weekly for three consecutive weeks versus 1 on/1 off or 2 on/1 off", "result": "less effective"},
      {"measurement": "crossing of the blood-brain-barrier", "setting": "[1]; mice, intravenous", "result": "crossed the BBB"},
      {"measurement": "plasma concentrations of bryostatin", "setting": "[1]; mice, single weekly injection for three consecutive weeks versus 1 on/1 off or 2 on/1 off", "result": "greater"},
      {"measurement": "levels of bryostatin in brain compared to plasma", "setting": "[1]; mice, sporadic dosing (cages 9 and 11)", "result": "increased"},
      {"measurement": "bryostatin (% of Control), BRAIN", "setting": "[1]; [2]", "result": "0.0140 % of Control"},
      {"measurement": "bryostatin (% of Control), BRAIN", "setting": "[1]; [3]", "result": "0.0202 % of Control"},
      {"measurement": "bryostatin (% of Control), BRAIN", "setting": "[1]; [4]", "result": "0.0197 % of Control"},
      {"measurement": "bryostatin (% of Control), BRAIN", "setting": "[1]; [5]", "result": "0.0217 % of Control"},
      {"measurement": "bryostatin (% of Control), PLASMA", "setting": "[1]; [2]", "result": "0.0306 % of Control"},
      {"measurement": "bryostatin (% of Control), PLASMA", "setting": "[1]; [3]", "result": "0.0287 % of Control"},
      {"measurement": "bryostatin (% of Control), PLASMA", "setting": "[1]; [4]", "result": "0.0148 % of Control"},
      {"measurement": "bryostatin (% of Control), PLASMA", "setting": "[1]; [5]", "result": "0.0012 % of Control"}
    ]}
  ]
}
